Values joined by “and” are separate entries in the source; they are usually repeats but may differ in a detail not shown here. Identical values can stand only once. Like-named read-outs stand apart in the source and are kept apart here.
Tests used:
Type in all cases: biochemical
[1] = biological target: T1, human MMP-2 (amino acids 1-660) (Homo sapiens, UniProt P08253); test: MMP dose response assay for determining IC50, MMP-2; details: recombinant enzyme, fluorescent-quench substrate 100 nM; read-out: MMP-2
T1 construct: human MMP-2 (amino acids 1-660); made in house
T1 sequence (P08253 110-660): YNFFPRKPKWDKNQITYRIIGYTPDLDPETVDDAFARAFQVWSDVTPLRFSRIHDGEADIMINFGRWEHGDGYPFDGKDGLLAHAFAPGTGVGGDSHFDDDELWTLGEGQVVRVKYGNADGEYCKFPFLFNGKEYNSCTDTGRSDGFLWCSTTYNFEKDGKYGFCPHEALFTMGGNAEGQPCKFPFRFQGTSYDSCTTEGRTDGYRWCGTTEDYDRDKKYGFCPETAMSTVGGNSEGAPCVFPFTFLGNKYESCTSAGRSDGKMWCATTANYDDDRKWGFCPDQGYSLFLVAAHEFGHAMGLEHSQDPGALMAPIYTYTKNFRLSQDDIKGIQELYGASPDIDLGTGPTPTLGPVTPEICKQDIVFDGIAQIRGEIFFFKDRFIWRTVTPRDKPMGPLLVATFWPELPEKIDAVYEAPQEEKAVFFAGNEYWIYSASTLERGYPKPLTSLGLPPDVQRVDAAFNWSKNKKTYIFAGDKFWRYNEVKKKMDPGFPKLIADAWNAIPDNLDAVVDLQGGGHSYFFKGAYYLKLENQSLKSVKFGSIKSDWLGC
Procedure: (§1) MMP Dose Response Assay for Determining IC50
(§2) The following method was used for determining IC50 values of different inhibitor compounds against multiple MMP enzymes. Frozen stocks of recombinantly produced MMPs were prepared in assay buffer (50 mM HEPES pH 7.4, 10 mM CaCl2, 0.05% Brij-35). […] Enzyme concentrations in the assay were determined empirically and set such that proteolytic activity was maintained in a linear range over the time-course of the experiment. […] Each concentration for each test compound was tested in triplicate. MMP enzymes were equilibrated with compounds for 1 hour at room temperature, then a fluorescent-quench substrate (Acetyl-Cys(Eu)-Pro-Leu-Gly-Leu-Lys-(QSY7)-Ala-Arg-amide) was added to a final concentration of 100 nM. […] Data was analyzed by first calculating average background value from wells that contained only substrate, and this value was subtracted from the entire plate. The 100%, or maximum value, was determined by averaging control wells that contained enzyme, substrate and DMSO. For each well, the percent of control was calculated by dividing the well value by the average DMSO value obtained above.

[2] = biological target: T2, human MMP-9 (amino acids 107-446) (Homo sapiens, UniProt P14780); test: MMP dose response assay for determining IC50, MMP-9
T2 construct: human MMP-9 (amino acids 107-446); made in house
T2 sequence (P14780 107-446): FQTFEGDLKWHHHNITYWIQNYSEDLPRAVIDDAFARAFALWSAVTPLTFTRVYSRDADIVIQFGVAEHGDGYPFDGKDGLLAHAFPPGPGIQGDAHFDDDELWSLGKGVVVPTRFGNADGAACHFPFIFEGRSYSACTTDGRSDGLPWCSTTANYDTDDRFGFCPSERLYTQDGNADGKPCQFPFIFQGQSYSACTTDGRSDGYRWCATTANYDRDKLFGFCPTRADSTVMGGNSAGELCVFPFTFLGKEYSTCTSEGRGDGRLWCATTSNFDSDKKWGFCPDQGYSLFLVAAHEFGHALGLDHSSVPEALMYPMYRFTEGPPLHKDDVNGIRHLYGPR
Procedure: as §1, §2

[3] = biological target: T3, human MMP-1 (amino acids 100-262) (Homo sapiens, UniProt P03956); test: MMP dose response assay for determining IC50, MMP-1; details: recombinant catalytic domain, fluorescent-quench substrate 100 nM
T3 construct: human MMP-1 (amino acids 100-262); made in house
T3 sequence (P03956 100-262): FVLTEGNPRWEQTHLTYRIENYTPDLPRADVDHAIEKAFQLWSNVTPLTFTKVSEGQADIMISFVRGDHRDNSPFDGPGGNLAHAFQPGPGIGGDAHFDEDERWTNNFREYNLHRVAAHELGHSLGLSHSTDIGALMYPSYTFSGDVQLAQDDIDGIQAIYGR
Procedure: as §1, §2

[4] = recombinant enzyme, fluorescent-quench substrate 100 nM, read-out: MMP-9

## CS(=O)(=O)N(C[C@H](O)C(=O)NO)c1ccc(Oc2ccc(Cl)cc2)cc1 [Compound 1, N-Hydroxy (2S)-2-hydroxy-3-{N-[4-(4-chlorophenoxy)phenyl], N-methanesulfonylamino}propionamide]
[1]
  IC50: 39.5 nM and 30.3 nM
[2]; [4]
  IC50: 5.04 nM and 4.35 nM
[3]
  IC50: > 10 µM

## CO[C@@H](CN(c1ccc(Oc2ccc(C)cc2)cc1)S(C)(=O)=O)C(=O)NO [Compound 2, N-Hydroxy (2S)-2-methoxy-3-{N-[4-(4-methylphenoxy)phenyl], N-methanesulfonylamino}propionamide]
[1]
  IC50: 43.6 nM and 28.8 nM
[2]; MMP-9 (nM)
  IC50: 3.73 nM
[2]; [4]
  IC50: 4.15 nM
[3]
  IC50: > 10 µM

## Cc1ccc(Oc2ccc(N(C[C@H](NC(=O)C(C)C)C(=O)NO)S(C)(=O)=O)cc2)cc1 [Example 4, N-Hydroxy (2S)-3-{N-[4-(4-methylphenoxy)phenyl],N-methanesulfonylamino}-2-(2-propylcarbonylamino)propionamide]
[1]
  IC50: 53 nM and 86.7 nM
[2]; [4]
  IC50: 4.89 nM and 6 nM
[3]
  IC50: > 10 µM

## Cc1ccc(Oc2ccc(N(CC(C)(O)C(=O)NO)S(C)(=O)=O)cc2)cc1 (centres unmarked) [Example 6, N-Hydroxy 2-hydroxy-2-methyl-3-{N-[4-(4-methylphenoxy)phenyl],N-methanesulfonylamino}propionamide]
[1]
  IC50: 19.1 nM and 22.6 nM and 29.7 nM and 16.6 nM and 18.9 nM and 14.5 nM
[2]; [4]
  IC50: 7.4 nM and 7.76 nM and 7.44 nM and 4.82 nM and 2.17 nM and 3.57 nM
[3]
  IC50: 5.57 µM

## CS(=O)(=O)N(C[C@@H](O)C(=O)NO)c1ccc(Oc2ccccc2)cc1 [Example 11, N-Hydroxy (2R)-2-hydroxy-3-[N-(4-phenoxy)phenyl,N-methanesulfonylamino]propionamide]
[1]
  IC50: 472 nM
[2]; [4]
  IC50: 106 nM
[3]
  IC50: > 10 µM

## CS(=O)(=O)N(C[C@H](O)C(=O)NO)c1ccc(Oc2ccccc2)cc1 [Example 12, N-Hydroxy (2S)-2-hydroxy-3-[N-(4-phenoxy)phenyl,N-methanesulfonylamino]propionamide]
[1]
  IC50: 306 nM and 189 nM
[2]; [4]
  IC50: 49.7 nM and 29.2 nM
[3]
  IC50: > 10 µM

## CS(=O)(=O)N(C[C@@H](O)C(=O)NO)c1ccc(Oc2ccc(Cl)cc2)cc1 [Example 13, N-Hydroxy (2R)-2-hydroxy-3-{N-[4-(4-chlorophenoxy)phenyl],N-methanesulfonylamino}propionamide]
[1]
  IC50: 24.1 nM and 44.9 nM
[2]; [4]
  IC50: 5.57 nM and 7.16 nM
[3]
  IC50: 9.68 µM and 5.43 µM

## Cc1ccc(Oc2ccc(N(C[C@H](O)C(=O)NO)S(=O)(=O)Cc3ccccc3)cc2)cc1 [Example 14, N-Hydroxy (2S)-2-hydroxy-3-{N-[4-(4-methylphenoxy)phenyl],N-phenylmethylsulfonylamino}propionamide]
[1]
  IC50: 582 nM
[2]; [4]
  IC50: 92.9 nM
[3]
  IC50: > 10 µM

## CCCS(=O)(=O)N(C[C@H](O)C(=O)NO)c1ccc(Oc2ccc(C)cc2)cc1 [Example 15, N-Hydroxy (2S)-2-hydroxy-3-{N-[4-(4-methylphenoxy)phenyl],N-(1-propyl)sulfonylamino}propionamide]
[1]
  IC50: 509 nM
[2]; [4]
  IC50: 124 nM
[3]
  IC50: > 10 µM

## Cc1ccc(Oc2ccc(N(C[C@H](O)C(=O)NO)S(=O)(=O)C(C)C)cc2)cc1 [Example 16, N-Hydroxy (2S)-2-hydroxy-3-{N-[4-(4-methylphenoxy)phenyl],N-(2-propyl)sulfonylamino}propionamide]
[2]; [4]
  IC50: 286 nM
[3]
  IC50: > 10 µM

## CO[C@H](CN(c1ccc(Oc2ccc(C)cc2)cc1)S(C)(=O)=O)C(=O)NO [Example 17, N-Hydroxy (2R)-2-methoxy-3-{N-[4-(4-methylphenoxy)phenyl],N-methanesulfonylamino}propionamide]
[1]
  IC50: 101 nM
[2]; MMP-9 (nM)
  IC50: 12.7 nM
[3]
  IC50: > 10 µM

## Cc1ccc(Oc2ccc(N(C[C@H](NC(C)C)C(=O)NO)S(C)(=O)=O)cc2)cc1 [Example 18, N-Hydroxy (2S)-3-{N-[4-(4-methylphenoxy)phenyl],N-methanesulfonylamino}-2-[(2-propyl)amino]propionamide]
[1]
  IC50: 3.63 nM and 2.51 nM and 3.25 nM and 5.11 nM and 5.46 nM and 4.21 nM
[2]; [4]
  IC50: 0.61 nM and 0.75 nM and 0.3 nM and 0.41 nM and 0.45 nM
[3]
  IC50: > 10 µM and 9.56 µM and 4.17 µM and 8.39 µM and 6.95 µM

## Cc1ccc(Oc2ccc(N(C[C@H](O)C(=O)NO)S(=O)(=O)N(C)C)cc2)cc1 [Example 19, N-Hydroxy (2S)-2-hydroxy-3-{N-[4-(4-methylphenoxy)phenyl],N-(dimethylamino)sulfonylamino}propionamide]
[2]; [4]
  IC50: 243 nM
[3]
  IC50: > 10 µM

## Cc1ccc(Oc2ccc(N(C[C@H](O)C(=O)NO)S(=O)(=O)c3ccccc3)cc2)cc1 [Example 21, N-Hydroxy (2S)-2-hydroxy-3-{N-[4-(4-methylphenoxy)phenyl],N-phenylsulfonylamino}propionamide]
[2]; [4]
  IC50: 344 nM
[3]
  IC50: > 10 µM

## Cc1ccc(Oc2ccc(N(C[C@H](Nc3ccccc3)C(=O)NO)S(C)(=O)=O)cc2)cc1 [Example 30, N-Hydroxy (2S)-3-{N-[4-(4-methylphenoxy)phenyl],N-methanesulfonylamino}-2-phenylaminopropionamide]
[1]
  IC50: 18.6 nM and 15.4 nM and 15.3 nM and 5.27 nM and 9.5 nM and 9.9 nM and 7.96 nM
[3]
  IC50: > 10 µM and 6.22 µM and 8.73 µM and 7.28 µM and 7.46 µM

## Cc1ccc(C#Cc2ccc(N(C[C@H](O)C(=O)NO)S(C)(=O)=O)cc2)cc1 [Example 63, N-Hydroxy (2S)-2-hydroxy-3-{N-[4-(4-methylphenylacetylene)phenyl],N-methanesulfonylamino}propionamide]
[1]
  IC50: 28.2 nM and 65.9 nM
[3]
  IC50: > 10 µM

## CS(=O)(=O)N(C[C@@H](C(=O)NO)N1CCc2ccccc2C1)c1ccc(Oc2ccc(C(F)(F)F)cc2)cc1 [Example 73, N-Hydroxy (2S)-2-(1,2,3,4-tetrahydroisoquinolin-2-yl)-3-{N-[4-(4-trifluoromethylphenoxy)phenyl],N-methanesulfonylamino}propionamide]
[3]
  IC50: > 10 µM

## C[C@@H]1CN([C@@H](CN(c2ccc(Oc3ccc(Cl)cc3)cc2)S(C)(=O)=O)C(=O)NO)C[C@H](C)O1 [Example 95, N-Hydroxy (2S)-3-{N-[4-(4-chlorophenoxy)phenyl],N-methanesulfonylamino}-2-(cis-2,6-dimethylmorpholin-4-yl)propionamide]
[1]
  IC50: 2.54 nM and 3.69 nM and 1.28 nM
[2]; [4]
  IC50: 0.57 nM and 0.64 nM and 0.17 nM

## CS(=O)(=O)N(C[C@@H](C(=O)NO)N1CCCCC1)c1ccc(Oc2ccc(C(F)(F)F)cc2)cc1 [Example 96, N-Hydroxy (2S)-2-(piperidin-1-yl)-3-{N-[4-(4-trifluoromethylphenoxy)phenyl],N-methanesulfonylamino}propionamide]
[1]
  IC50: 7.55 nM
[2]; [4]
  IC50: 2.34 nM

## CN(O)C(=O)[C@H](CN(c1ccc(Oc2ccc(C(F)(F)F)cc2)cc1)S(C)(=O)=O)N1CCOCC1 [Example 98, N-Hydroxy,N-methyl (2S)-2-(morpholin-4-yl)-3-{N-[4-(4-trifluoromethylphenoxy)phenyl],N-methanesulfonylamino}propionamide]
[1]
  IC50: 447 nM
[2]; [4]
  IC50: 159 nM

## CC(C)O[C@@H](CN(c1ccc(Oc2ccc(C(F)(F)F)cc2)cc1)S(C)(=O)=O)C(=O)NO [Example 99, N-Hydroxy (2S)-2-(2-propoxy)-3-{N-[4-(4-trifluoromethylphenoxy)phenyl],N-methanesulfonylamino}propionamide]
[1]
  IC50: 50.3 nM
[2]; [4]
  IC50: 8.18 nM

## Cc1ccc(Oc2ccc(N(C[C@@H](C(=O)NO)N3C[C@@H](C)O[C@@H](C)C3)S(C)(=O)=O)cc2)cc1 [Example 100, N-Hydroxy (2S)-2-(cis-2,6-dimethylmorpholin-4-yl)-3-{N-[4-(4-methylphenoxy)phenyl],N-methanesulfonylamino}propionamide]
[1]
  IC50: 2.83 nM
[2]; [4]
  IC50: 0.68 nM

## CS(=O)(=O)N(C[C@H](O)C(=O)N(O)CCN1CCOCC1)c1ccc(Oc2ccc(Cl)cc2)cc1 [Example 101, N-Hydroxy,N-[2-(morpholin-4-yl)ethyl](2S)-2-hydroxy-3-{N-[4-(4-chlorophenoxy)phenyl],N-methanesulfonylamino}propionamide]
[1]
  IC50: 1400 nM
[2]; [4]
  IC50: 206 nM

## C=CCN(O)C(=O)[C@H](CN(c1ccc(Oc2ccc(C)cc2)cc1)S(C)(=O)=O)N1C[C@@H](C)O[C@@H](C)C1 [Example 102, N-(3-Allyl),N-hydroxy (2S)-2-(cis-2,6-dimethylmorpholin-4-yl)-3-{N-[4-(4-methylphenoxy)phenyl],N-methanesulfonylamino}propionamide]
[1]
  IC50: 23 nM and 24.8 nM
[2]; [4]
  IC50: 6.53 nM and 6.01 nM

Reference: patent publication US20080085893A1, “MATRIX METALLOPROTEASE INHIBITORS” (priority 2006, published 2008)
